PMC7497641, “Neurotropic activity and safety of methylene-cycloalkylacetate (MCA) derivative 3-(3-allyl-2-methylenecyclohexyl) propanoic acid” (ACS Chemical Neuroscience, 2020)

Legend:
[1] = target: T1, Serotonin transporter (SERT) (Homo sapiens, UniProt P31645); assay: cell-based; conditions: Blocker
T1 construct: host or cells: unnamed DiscoverX cell line

[2] = system: adult rat spinal cord primary cultures; assay: Spinal cord neurons neurite outgrowth assay; format: cell-based; conditions: 10 μM HU-MCA-13
Method: To study the effect of HU-MCA-13 on adult rat spinal cord primary cultures in vitro, we developed a purification procedure that yields enriched different types of spinal cord neuronal cultures. This neurotropic assay was performed using vehicle 1% DMSO in DMEM as control and 10 μM HU-MCA-13. The results in Figure 1 bottom row and Figure 3D clearly indicate that in control there was very poor spontaneous neurite outgrowth of a total length of about 180 μm and NGF induced neurite outgrowth to a total length of about 800 μm. Similarly, HU-MCA-13 induced a neurite outgrowth of 600 μm. Figure 2B indicates cytoskeletal-tubulin protein expression in the cultured neurons. These findings further extend the neurotropic effect of HU-MCA-13 to spinal cord neurons, in addition to DRGs and PC12 cells.
Spinal cords were isolated from adult rats (4–6 months old), and the meninges were removed from the spinal cord. The spinal cord was then cut into small pieces and collected in cold Hibernate A (Brainbits, Springfield, IL, USA), glutamine (0.5 mM), and B27 (Invitrogen, Carlsbad, CA). […] Neurite outgrowth was measured and presented as mean length of a neurite (microns). To measure neuronal survival, 450 cells were counted in 10 randomly chosen microscope fields of a known area in each of the three dishes per condition using a 20× objective and phase-contrast optics. […]

[3] = Single-dose acute tolerance, intravenous; format: in vivo, Male C57BL/6 mice; conditions: 250 mg/kg intravenously
Method: This pilot study was conducted according to guidance for industry single dose acute toxicity testing for pharmaceuticals (https://www.fda.gov/regulatory-information/search-fda-guidance-documents/single-dose-acute-toxicity-testing-pharmaceuticals) to obtain acute information on the dose toxicity of HU-MCA-13 in male mice. Male C57BL/6 mice were injected intravenously with 0.2 mL of HU-MCA-13 in a dose of 250 mg/kg. […] The mortality and changes on body weight, clinical signs and gross observation, were monitored up to 30 days after treatment.
Sensory motor/neurological performance
The performance was weekly measured using several routine motor tests, but no neurological losses w ere observed (Table 1). Sensory motor tests were scored individually and according to the neurologic function severity score (NSS). The data from each individual test and the total score calculated from individual tests that make up the mNSS were measured. The following tests were […]
a. Beam balance test -mice were placed on a 2.5 cm wide beam for 60 seconds. A normal response is balance with steady posture for 60 seconds (a score of 0). Deficits are scored if the rat:
1. Grasps the side of the beam (score of 1); 2. Hugs the beam and one limb falls down from the beam (score of 2); 3. Hugs the beam and two limbs fall off the beam (score of 3); 4. Try to balance on the beam, but falls off from 60 seconds (score of 4); 5. Try to balance on the beam but falls off from 60 seconds (score of 5); 6. Falls off with no attempt to balance or hang on the beam in les s than 20 seconds (score of 6). b. Foot fault test- dysfunction of forelimb movement, while walking on elevated metal grids.
The animal was placed on horizontal grids (85 ×26 ×20) cm with a glass enclosure for observation.
With each weight bearing step, the forelimb can fall or slip between the metal support bars, an event recorded as a foot fault. The total number of forelimb steps and the total number of foot faults were counted. The percentage of forelimb foot faults to the total steps that occurred within 2 minutes represent the test results. c. Hind limb placing test- This assay monitors reposition of hind limbs placed down and away from the table edge. The ability to retrieve and place the hind limbs back onto the table was measured. Immediate and complete limb retrieval was scored 0, delayed (>2 seconds) limb retrieval and/or interspersed flailing was scored 1, and no limb retrieval was scored 2; d. Increasing platform angle to slide test- This assay measures the strength and stability of resistance to slide down an inclined platform. It deploys a clean wooden board (60 X 40 cm) positioned horizontally. Mice were placed on the board with head facing up the increasing incline.
The board then swings to increase the degree of inclination the rat experiences until slipping down the board feet first. The degree of the angle at which the rat relinquishes their grip/stance on the board (slips down) represents the test results; […]
e. Forelimb whole body suspension test- This assay measure s grip strength by duration of suspen sion by forepaws. The rat is suspended o n a metal bar (diameter of 5 mm) which it tightly holds onto by its forelimbs. The time (seconds) during which each rat could sustain its body weight while holding onto the bar is measured. The mice drop from the bar onto soft material with no harm. The test was repeated three times and a mean result per rat was used as the score. […]

Cyclooxygenase 2 (COX 2) = target: T2, Cyclooxygenase 2 (COX 2) (Homo sapiens, UniProt P35354); assay: biochemical; conditions: Inhibitor, Enzymatic
T2 construct: purchased BPS Bioscience

[4] = 10 μM, read-out: MCA-13 Max. Responce
[5] = read-out: RC50 (the source's name)

T2 sequence (P35354 18-604): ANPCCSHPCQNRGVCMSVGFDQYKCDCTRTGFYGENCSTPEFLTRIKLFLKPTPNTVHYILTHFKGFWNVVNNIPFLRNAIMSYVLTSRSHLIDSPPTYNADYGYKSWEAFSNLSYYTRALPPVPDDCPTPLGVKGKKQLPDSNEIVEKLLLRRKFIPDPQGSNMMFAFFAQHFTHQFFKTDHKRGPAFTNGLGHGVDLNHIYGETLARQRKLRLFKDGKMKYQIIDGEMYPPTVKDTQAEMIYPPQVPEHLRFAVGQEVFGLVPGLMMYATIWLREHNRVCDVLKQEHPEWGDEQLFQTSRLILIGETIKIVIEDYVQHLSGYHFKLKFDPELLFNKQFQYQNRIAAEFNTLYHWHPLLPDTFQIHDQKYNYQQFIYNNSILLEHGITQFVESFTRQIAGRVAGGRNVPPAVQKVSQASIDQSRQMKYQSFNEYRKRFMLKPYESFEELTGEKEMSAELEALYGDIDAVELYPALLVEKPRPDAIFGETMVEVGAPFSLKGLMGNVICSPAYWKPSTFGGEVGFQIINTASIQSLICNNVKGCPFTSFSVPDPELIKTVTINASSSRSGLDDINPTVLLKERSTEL
T1 sequence (P31645 whole entry): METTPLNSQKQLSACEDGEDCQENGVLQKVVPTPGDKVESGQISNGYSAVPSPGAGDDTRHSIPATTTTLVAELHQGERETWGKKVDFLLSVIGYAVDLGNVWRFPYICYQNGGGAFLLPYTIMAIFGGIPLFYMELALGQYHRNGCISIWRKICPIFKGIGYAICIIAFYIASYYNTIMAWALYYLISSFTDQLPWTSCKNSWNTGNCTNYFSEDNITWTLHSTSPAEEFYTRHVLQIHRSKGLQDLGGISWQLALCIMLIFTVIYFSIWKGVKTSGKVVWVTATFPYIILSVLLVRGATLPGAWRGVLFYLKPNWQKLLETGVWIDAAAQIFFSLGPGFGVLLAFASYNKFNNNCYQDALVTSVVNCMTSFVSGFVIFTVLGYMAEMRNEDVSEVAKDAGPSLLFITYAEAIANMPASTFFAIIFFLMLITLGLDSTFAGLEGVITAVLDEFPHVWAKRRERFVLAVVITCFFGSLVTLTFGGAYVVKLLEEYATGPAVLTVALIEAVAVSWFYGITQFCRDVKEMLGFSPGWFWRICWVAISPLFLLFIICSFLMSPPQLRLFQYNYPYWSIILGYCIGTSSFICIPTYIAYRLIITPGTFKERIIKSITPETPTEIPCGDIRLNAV

C=CCC1CCCC(CCC(=O)O)C1=C (stereo not shown) [HU-MCA-13, 3-(3-allyl-2-methylenecyclohexyl)propanoic acid]
inhibition at 10 µM [1, 4]: 15.4%
IC50 [1, 5]: > 10 µM
neurite outgrowth total length [2]: 600 μm
autonomic symptoms (salivation, urinary delivery, pupillary constriction, hair contraction) versus DMSO [3]: no differences were observed
mortality ([3]; single dose, monitored up to 30 days): could not find any mortality
sensory-motor performance, neurologic function severity score (NSS) ([3]; first week after injection): no neurological losses were observed
changes on body weight versus 1% DMSO treated group ([3]; up to 30 days): No significant changes
body weight at end ([3]; up to 30 days, started with 21 g): 27 g
inhibition at 10 µM (Cyclooxygenase 2 (COX 2); [4]): 7.99%
IC50 (Cyclooxygenase 2 (COX 2); [5]): > 10 µM
